The test system of data set [1] is SK-Br3 cells. The data set can be described thus: Fluorescence microscopy, non-specific interaction of near-infrared dyes with FR-negative cells. The data set is classed as cell-based, human. The conditions noted are these: SK-Br3 cells (do not express FR), 30 minute incubation, 37° C. On the procedure:
The folic acid receptors (FR)-mediated binding of near-infrared gluorescent conjugate PAMAM-PG16-ICG-folate was studied using a human nasopharyngeal epidermal carcinoma cell line KB and a human breast carcinoma cell line SK-BR3. KB cells over-express the FR, whereas SK-Br3 cells have no detectable […]. Cells were incubated with PAMAM-PG16-ICG-folate, indocyanine green (ICG, Sigma-Aldrich Corp. St. Louis, Mo.) or ICG-NH2 at 37° C. on cover clips in a 24-well place (Beckton Dickinson Labware, Franklin Kakes, N.J.). Each well contained 0.5 ml Dulbecco's Modified Eagle's medium/nutrient Mixture F-12 Ham (DMEM/F12) containing 10% FBS (Gibco, Grand Island, N.Y.). The final concentration of the conjugate was calculated based on the equivalent does of folic acid and ICG-NH2. For the blocking study, free folic acid was added to the culture medium 30 minutes prior to the addition of the test agents. […] Data were recorded by a Leica DMR microscope (Leica Microsystems Inc. Brannockburn, Ill.) equipped with a 75 W Xenon lamp, Indo-Cyanine Green and FITC filters (775/845 and 480/535, excitation/emission, respectively) (Chroma Technology Corp., Brattleboro, Vt.), Hamamatsue B/W Chilled CCD camera (Hamamatsu Photonics, K.K. Hamamamatsu City, Japan) and Image-Pro Plus 4.5.1 software (Media Cybernetics, L. P., Silver Spring, Md.). […]

For data set [2], the system named is human vulvar squamous A431 cell line. The data set can be described thus: MTT assay, growth inhibition of A431 cells. The data set is classed as cell-based. The settings on record: A-431, 72 hrs continuous incubation, equivalent TXL concentrations, read-out: estimated IC50, growth inhibition.
Protocol: The MTT assay was used to quantitatively compare the effects of PAMAM-PG8-TXL, linear PG-TXL, and paclitaxel on cell growth in a human vulvar squamous A431 cell line. Cells were plated in a 96-well plate at a density of 2000 cells/well and then incubated with various concentrations of paclitaxel, PAMAM-PG8-TXL, or linear PG-TXL.
Data set [3] is described as follows: Body weight loss after treatment. The conditions noted are these: 60 mg/kg, single i.v. dose.
Data set [4] relates to syngeneic murine ovarian OCA-1 tumor. The data set can be described thus: Tumor growth delay after a single intravenous dose. The settings on record: dose of 60 mg/kg, single i.v. dose, tumors 8 mm.

`CC1(C)C(/C=C/C=C/C=C/C=C2\N(CCCCS(=O)(=O)O)c3ccc4ccccc4c3C2(C)C)=[N+](CCCCS(=O)(=O)[O-])c2ccc3ccccc3c21` [ICG, indocyanine green]: in data set [1], the “fluorescence / non-specific interaction with cells” value is listed as “did not have detectable non-specific interaction”.
A word on the IC50: it is the concentration at which inhibition is half-maximal. Regarding `CC(=O)O[C@H]1C(=O)[C@@]2(C)[C@H]([C@H](OC(=O)c3ccccc3)[C@]3(O)C[C@H](OC(=O)[C@H](O)[C@@H](NC(=O)c4ccccc4)c4ccccc4)C(C)=C1C3(C)C)[C@]1(OC(C)=O)CO[C@@H]1C[C@@H]2O` [paclitaxel], the IC50 in data set [2] is less than 1 nM. The same compound showed a body weight loss in data set [3] of 10%. This compound also came in with a growth delay in data set [4] of 14 days.

The values above are taken from patent US7261875B2, “Dendritic poly (amino acid) carriers and methods of use” (Board of Regents, The University of Texas System, priority 2001, dated 2007).
